Measurements as given in patent publication US5843950A, “1,4-dihydropyridine compound and pharmaceutical composition containing the same” (Nikken Chemicals Co., Ltd., priority 1994, dated 1998).
Read-outs that look alike come from different tables or passages of the source.

Tests used:
[1] = test system: KB cells; experiment: In vitro suppression of proliferation of KB cancer cells by concomitant use with doxorubicin; assay type: cell-based, Human; settings: test compound 1 μg/ml with ADM, ADM alone in KB = 1
Experimental: (§1) In vitro test of action suppressing proliferation of cancer cells by concomitant use with doxorubicin
(§2) As the incubation solutions, use was made of 10% fetal calf serum (made by Flow Laboratories) and Eagle MEM medium (made by Nissui Seiyakusha) containing 0.292 mg/ml of L-glutamine (made by Flow Laboratories). The tests of the action in overcoming resistance to anti-cancer drugs or action reinforcing the effect of the anti-cancer drug through concomitant use of the anti-cancer drug doxorubicin (adriamycin, ADM) and the test compound were performed as follows: The test cells were suspended in incubation solutions and adjusted to a cell density of about 200 cells/ml. The cell suspensions were injected in 2 ml amounts into petri dishes and were incubated in a CO2 gas incubator (5% CO2, 95% air) at 37° C. for 24 hours. Next, 5 to 10 μl of a predetermined concentration of the aqueous ADM solution and a predetermined concentration of a DMSO solution of the test compound were added, then the incubation was continued for a further 7 days. After the end of the incubation, the result was immobilized by methanol, Giemsa stained and measured for the number of colonies per dish. The results were used to prepare a volume-reaction curve.

[2] = test system: VJ-300 cells; experiment: In vitro suppression of proliferation of multi-drug resistant VJ-300 cells by concomitant use with doxorubicin; assay type: cell-based, Human; settings: test compound 1 μg/ml with ADM, ADM alone in KB = 1
Experimental: as §1, §2

[3] = test system: KCl contraction in rat arteries (thoracic aorta); experiment: Action easing KCl contraction in rat arteries (thoracic aorta ring); settings: read-out: IC50 value (50% inhibitory concentration of hyperpotassium contraction), Test Example 7, Table 7, 37° C.
Experimental: Action easing KCl contraction in rat arteries
The specimen was stabilized for approximately 60 minutes, then a potassium chloride solution was added to the Magnus tube to give a final concentration of […]. The positive control compound or the compound of the present invention was cumulatively added from 1×10^-10 M to 1×10^-4 M when the contraction reaction occurring at that time reached equilibrium. The contraction force was recorded by an FD-pickup (made by Nihon Kodensha) via a polygraph (made by Nihon Kodensha).

[4] = test system: TxA2 synthesis; experiment: TxA2 synthesis inhibiting action test (human blood platelet microsomes); assay type: biochemical; settings: prostaglandin H2
Experimental: TxA2 Synthesis Inhibiting Action Test
One ml of a buffer (20 mM Tris-HCl buffer, 1 mM EDTA, pH 7.5) containing human blood platelet microsomes (50 μg protein/ml) and the test compound (final concentration 10^-7 M) was agitated, then incubated at 0° C. for 30 minutes. To this was added prostaglandin H2 (100 ng/2 μl). This was incubated at 23° C. for 3 minutes to cause a reaction. Next, 1M hydrochloric acid was added to make the solution acidic and stop the reaction, then this was neutralized by 1M Tris-Base and centrifuged at 3000 rpm for 20 minutes. The amount of the TxB2 in the supernatant was measured by the EIA method (Cayman Co. kit).

[5] = Acute toxicity test; settings: mouse, in vivo, ip; mice, intraperitoneal, 7 days observation
Experimental: Animals used: ICR male mice (Charles River Japan) 7-8 weeks old, three mice per group.
Test method: The compound of the present invention was suspended in 0.5% sodium carboxymethylcellulose (CMC-Na) containing 0.1% Tween 80. It was administered to the mice intraperitoneally from 2000 mg/kg to 125 mg/kg by a ratio of 1/2 and from 125 mg/kg to 31.3 mg/kg by a ratio of 1/√2 in groups of three mice until no more deaths were observed. The survival of the animals was observed up until 7 days after administration and the LD50 was calculated by the Van Der Wearder area method.

[6] = test system: VCR resistant murine leukemia (P388/VCR) cells; experiment: In vivo effect for overcoming resistance to vincristine in VCR resistant murine leukemia (P388/VCR) bearing mice; design: species or system CDF1 male mice
Description: In vivo test of action suppressing proliferation of cancer cells by concomitant use with anti-cancer drug
The number of survival days were found and the life prolonging rate (T/C) with respect to the controls was found. The effect in overcoming resistance to an anti-cancer drug (T/V) was found by the following formula.
Effect for overcoming resistance to an anti-cancer drug (T/V) %
=[Life prolonging rate (T/C) in case of concomitant use of VCR and the compound of the present invention]/[Life prolonging rate (T/C) in case of VCR alone]×100
Using Compound 18 to Compound 22 and Compound 32, the same procedure was followed as in Test Example 5 to find the effect for overcoming resistance to an anti-cancer drug in vincristine (VCR) resistant murine leukemia cell bearing mice.

[7] = test system: KCl contraction in rat arteries (thoracic aorta); experiment: Action easing KCl contraction in rat arteries (thoracic aorta ring); settings: read-out: IC50 value (50% inhibitory concentration of hypercalcemic contraction), Test Example 8, Table 8
[8] = test system: multi-drug resistance; settings: Cancer Res., 41, 1967-1972 (1981); Cancer and Chemotherapy, vol. 11, pp. 750-759 (1984); cited from earlier work
[9] = test system: VJ-300 cells; experiment: In vitro suppression of proliferation of multi-drug resistant VJ-300 cells by concomitant use with vincristine; assay type: cell-based, Human; settings: test compound 1 μg/ml with VCR, VCR alone in KB = 1
[10] = test system: KB cells; experiment: In vitro suppression of proliferation of KB cancer cells by concomitant use with vincristine; assay type: cell-based, Human; settings: test compound 1 μg/ml with VCR, VCR alone in KB = 1
Experimental: as §2
In vitro test of action suppressing proliferation of cancer cells by concomitant use with vincristine […]

[11] = Test Example 5, Table 5, T/C with VCR + compound over T/C with VCR alone ×100
[12] = Test Example 5, Table 5, VCR 100 μg/kg i.p. 5 days with compound 100 mg/kg (verapamil 60, nicardipine 75 mg/kg)
[13] = Test Example 6, Table 6, same procedure as Test Example 5

Row | SMILES | TxA2 synthesis inhibiting action Rate of suppression at 10^-7 mol (%) [4] [%] | LD50 at 168 h [5] [mg/kg] | Effect for overcoming resistance T/V (%) [6, 11] [%] | Life prolonging rate T/C (%) [6, 12] [%] | Mean days of survival [6, 12] [days] | IC50 [7] [µM] | further results
1 | COc1cccc2c1C(=O)c1c(O)c3c(c(O)c1C2=O)C[C@@](O)(C(=O)CO)C[C@@H]3O[C@H]1C[C@H](N)[C@H](O)[C@H](C)O1 [ADM, doxorubicin] | – | – | – | – | – | – | Resistance with ADM, KB (LD50 concentration of ADM relative to ADM alone in KB cells) [1]: 1; Resistance with ADM, VJ-300 (LD50 concentration of ADM relative to ADM alone in KB cells) [2]: 26.4
2 | CC1=C(C(=O)OCCCc2cccnc2)C(C(C)C)C(C(=O)OCCCc2cccnc2)=C(C)N1 [Compound 1, 2,6-dimethyl-4-isopropyl-1,4-dihydropyridine-3,5-dicarboxylic acid bis[3-(3-pyridyl)propyl]ester] | 90.7 | 750 | – | – | – | – | IC50 [3]: > 30 µM
3 | CCCC(C)C1C(C(=O)OCCCc2cccnc2)=C(C)NC(C)=C1C(=O)OCCCc1cccnc1 (stereo not shown) [Compound 3, 2,6-dimethyl-4-(1-methylbutyl)-1,4-dihydropyridine-3,5-dicarboxylic acid bis[3-(3-pyridyl)propyl]ester] | 82.4 | 188 | 161 | 172 | 17.2 | – | –
4 | CC1=C(C(=O)OCCCc2cccnc2)C(Cc2ccccc2)C(C(=O)OCCCc2cccnc2)=C(C)N1 [Compound 5, 2,6-dimethyl-4-benzyl-1,4-dihydropyridine-3,5-dicarboxylic acid bis[3-(3-pyridyl)propyl]ester] | – | 1120 | – | – | – | 42 | –
5 | CC1=C(C(=O)OCCCc2cccnc2)C(C(c2ccccc2)c2ccccc2)C(C(=O)OCCCc2cccnc2)=C(C)N1 [Compound 6, 2,6-dimethyl-4-benzhydryl-1,4-dihydropyridine-3,5-dicarboxylic acid bis[3-(3-pyridyl)propyl]ester] | – | 2000 | – | – | – | – | IC50 [3]: 25.5 µM
6 | COC(=O)C1=C(C)NC(C)=C(C(=O)OCCCc2cccnc2)C1C(C)C (stereo not shown) [Compound 13, 2,6-dimethyl-4-isopropyl-1,4-dihydropyridine-3,5-dicarboxylic acid 3-methylester 5-[3-(3-pyridyl)propyl]ester] | 71.4 | – | – | – | – | 5.7 | –
7 | CC1=C(C(=O)OCCCc2cccnc2)C(C(C)C)C(C(=O)OCc2ccncc2)=C(C)N1 (stereo not shown) [Compound 15, 2,6-dimethyl-4-isopropyl-1,4-dihydropyridine-3,5-dicarboxylic acid 3-(4-pyridylmethyl) ester, 5-[3-(3-pyridyl)propyl]ester] | 83.5 | – | 134 | 144 | 14.4 | 4.2 | –
8 | CCCCCCCCC1C(C(=O)OCCCc2cccnc2)=C(C)NC(C)=C1C(=O)OCCCc1cccnc1 [Compound 16, 2,6-dimethyl-4-n-octyl-1,4-dihydropyridine-3,5-dicarboxylic acid bis[3-(3-pyridyl)propyl]ester] | – | > 2000 | – | – | – | 62 | –
9 | CCCCCC1C(C(=O)OCCCc2cccnc2)=C(C)NC(C)=C1C(=O)OCCCc1cccnc1 [Compound 18, 2,6-dimethyl-4-n-pentyl-1,4-dihydropyridine-3,5-dicarboxylic acid bis[3-(3-pyridyl)propyl]ester] | – | > 2000 | – | – | – | 4.6 | Effect for overcoming resistance T/V (%) [6, 13]: 140%; Life prolonging rate T/C (%) [6, 13]: 143%; Mean days of survival [6, 13]: 15.3 days
10 | CCCCCC#CC1C(C(=O)OCCCc2cccnc2)=C(C)NC(C)=C1C(=O)OCCCc1cccnc1 [Compound 32, 2,6-dimethyl-4-(1-heptynyl)-1,4-dihydropyridine-3,5-dicarboxylic acid bis[3-(3-pyridyl)propyl]ester] | – | – | – | – | – | 10.5 | Effect for overcoming resistance T/V (%) [6, 13]: 133%; Life prolonging rate T/C (%) [6, 13]: 136%; Mean days of survival [6, 13]: 14.5 days
11 | COC(=O)C1=C(C)NC(C)=C(C(=O)OCCN(C)Cc2ccccc2)C1c1cccc([N+](=O)[O-])c1 (stereo not shown) [Nicardipine, nicardipine, reference compound] | – | – | 123 | 132 | 13.2 | 0.15 | IC50 [3]: 0.53 µM; overcoming multi-drug resistance by concomitant administration with an anti-cancer drug [8]: effective
12 | CC[C@]1(O)C[C@H]2CN(CCc3c([nH]c4ccccc34)[C@@](C(=O)OC)(c3cc4c(cc3OC)N(C=O)[C@H]3[C@@](O)(C(=O)OC)[C@H](OC(C)=O)[C@]5(CC)C=CCN6CC[C@]43[C@@H]65)C2)C1 [VCR, vincristine, reference compound] | – | – | 100 | 107 | 10.7 | – | Resistance with VCR, VJ-300 (LD50 concentration of VCR relative to VCR alone in KB cells) [9]: 603.4; Effect for overcoming resistance T/V (%) [6, 13]: 100%; Life prolonging rate T/C (%) [6, 13]: 102%; Mean days of survival [6, 13]: 10.9 days; Resistance with VCR, KB (LD50 concentration of VCR relative to VCR alone in KB cells) [10]: 1
